Results as given in article PMC4042160, “In silico, in vitro and cellular analysis with a kinome-wide inhibitor panel correlates cellular LRRK2 dephosphorylation to inhibitor activity on LRRK2” (Frontiers in Molecular Neuroscience, 2014).

Columns and labels:
[1] = molecular target: T1, GST-tagged truncated LRRK2 containing residues 970 to 2527 (Homo sapiens, UniProt Q5S007); assay: In vitro LRRKtide peptide-substrate kinase assay, single dose testing (10 μM); assay type: biochemical; settings: for % LRRKtide phosphorylation relative to solvent: LRRKtide assay @ 10 μM inhibitor, GST-LRRK2 970-2527, 10 μM ATP, mean, N = 3, solvent control = 100%
T1 construct: GST-tagged truncated LRRK2 containing residues 970 to 2527 (Life Technologies); purchased Life Technologies
T1 sequence (Q5S007 970-2527): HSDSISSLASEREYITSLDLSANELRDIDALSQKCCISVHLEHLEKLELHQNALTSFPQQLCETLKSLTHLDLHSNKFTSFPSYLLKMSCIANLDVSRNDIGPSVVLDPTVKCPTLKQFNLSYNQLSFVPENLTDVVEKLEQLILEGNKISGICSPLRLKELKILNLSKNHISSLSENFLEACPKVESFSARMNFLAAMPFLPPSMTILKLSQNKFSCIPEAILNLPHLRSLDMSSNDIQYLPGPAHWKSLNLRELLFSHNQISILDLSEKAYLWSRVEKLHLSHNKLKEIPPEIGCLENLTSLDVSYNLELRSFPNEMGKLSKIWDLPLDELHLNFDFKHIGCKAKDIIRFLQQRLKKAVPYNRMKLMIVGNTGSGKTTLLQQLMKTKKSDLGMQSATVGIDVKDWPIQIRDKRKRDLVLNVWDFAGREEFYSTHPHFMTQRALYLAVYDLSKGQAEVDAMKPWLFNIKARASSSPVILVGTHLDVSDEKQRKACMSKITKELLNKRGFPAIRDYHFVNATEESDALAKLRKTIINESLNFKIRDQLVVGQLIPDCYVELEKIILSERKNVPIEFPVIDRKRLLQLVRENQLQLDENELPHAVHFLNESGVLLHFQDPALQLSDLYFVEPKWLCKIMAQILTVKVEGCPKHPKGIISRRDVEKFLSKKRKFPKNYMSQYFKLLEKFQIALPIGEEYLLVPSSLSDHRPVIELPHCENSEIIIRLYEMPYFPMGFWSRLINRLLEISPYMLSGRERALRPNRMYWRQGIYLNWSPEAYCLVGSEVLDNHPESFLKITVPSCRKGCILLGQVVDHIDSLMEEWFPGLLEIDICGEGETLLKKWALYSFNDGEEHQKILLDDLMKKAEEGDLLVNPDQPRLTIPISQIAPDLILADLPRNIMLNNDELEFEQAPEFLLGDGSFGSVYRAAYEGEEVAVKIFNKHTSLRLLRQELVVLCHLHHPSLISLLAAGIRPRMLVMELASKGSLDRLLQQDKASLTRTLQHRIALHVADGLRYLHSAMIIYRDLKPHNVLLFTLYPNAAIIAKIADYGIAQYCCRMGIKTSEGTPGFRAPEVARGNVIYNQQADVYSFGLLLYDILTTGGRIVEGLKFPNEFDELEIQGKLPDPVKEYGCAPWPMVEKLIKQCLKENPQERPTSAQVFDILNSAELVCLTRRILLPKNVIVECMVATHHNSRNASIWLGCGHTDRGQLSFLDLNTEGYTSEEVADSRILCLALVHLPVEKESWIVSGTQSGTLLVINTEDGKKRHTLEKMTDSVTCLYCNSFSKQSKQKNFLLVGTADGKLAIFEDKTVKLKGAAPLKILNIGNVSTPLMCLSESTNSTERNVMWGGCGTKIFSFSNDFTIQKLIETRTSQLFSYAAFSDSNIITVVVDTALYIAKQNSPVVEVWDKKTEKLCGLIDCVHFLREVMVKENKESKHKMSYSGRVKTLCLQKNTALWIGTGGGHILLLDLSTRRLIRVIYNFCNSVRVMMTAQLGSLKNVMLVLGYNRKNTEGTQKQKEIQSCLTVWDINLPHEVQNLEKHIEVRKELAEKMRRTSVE

LRRK2 phospho-Ser935 = molecular target: T2, LRRK2 phospho-Ser935 (Homo sapiens, UniProt Q5S007); assay: Cellular LRRK2 phosphoserine 935 dephosphorylation spotblot assay in SH-SY5Y cells stably expressing 3xFlag-LRRK2; assay type: cell-based; settings: for Phosphorylation level relative to solvent (%) (cellular pS935 assay): @ 5 μM for 2 h, SH-SY5Y stably expressing LRRK2, pS935/total LRRK2; for dephosphorylation of LRRK2 (Ser935): 5 μM, 2 h, SH-SY5Y
T2 construct: expressed in transfected cells
T2 sequence (Q5S007 whole entry): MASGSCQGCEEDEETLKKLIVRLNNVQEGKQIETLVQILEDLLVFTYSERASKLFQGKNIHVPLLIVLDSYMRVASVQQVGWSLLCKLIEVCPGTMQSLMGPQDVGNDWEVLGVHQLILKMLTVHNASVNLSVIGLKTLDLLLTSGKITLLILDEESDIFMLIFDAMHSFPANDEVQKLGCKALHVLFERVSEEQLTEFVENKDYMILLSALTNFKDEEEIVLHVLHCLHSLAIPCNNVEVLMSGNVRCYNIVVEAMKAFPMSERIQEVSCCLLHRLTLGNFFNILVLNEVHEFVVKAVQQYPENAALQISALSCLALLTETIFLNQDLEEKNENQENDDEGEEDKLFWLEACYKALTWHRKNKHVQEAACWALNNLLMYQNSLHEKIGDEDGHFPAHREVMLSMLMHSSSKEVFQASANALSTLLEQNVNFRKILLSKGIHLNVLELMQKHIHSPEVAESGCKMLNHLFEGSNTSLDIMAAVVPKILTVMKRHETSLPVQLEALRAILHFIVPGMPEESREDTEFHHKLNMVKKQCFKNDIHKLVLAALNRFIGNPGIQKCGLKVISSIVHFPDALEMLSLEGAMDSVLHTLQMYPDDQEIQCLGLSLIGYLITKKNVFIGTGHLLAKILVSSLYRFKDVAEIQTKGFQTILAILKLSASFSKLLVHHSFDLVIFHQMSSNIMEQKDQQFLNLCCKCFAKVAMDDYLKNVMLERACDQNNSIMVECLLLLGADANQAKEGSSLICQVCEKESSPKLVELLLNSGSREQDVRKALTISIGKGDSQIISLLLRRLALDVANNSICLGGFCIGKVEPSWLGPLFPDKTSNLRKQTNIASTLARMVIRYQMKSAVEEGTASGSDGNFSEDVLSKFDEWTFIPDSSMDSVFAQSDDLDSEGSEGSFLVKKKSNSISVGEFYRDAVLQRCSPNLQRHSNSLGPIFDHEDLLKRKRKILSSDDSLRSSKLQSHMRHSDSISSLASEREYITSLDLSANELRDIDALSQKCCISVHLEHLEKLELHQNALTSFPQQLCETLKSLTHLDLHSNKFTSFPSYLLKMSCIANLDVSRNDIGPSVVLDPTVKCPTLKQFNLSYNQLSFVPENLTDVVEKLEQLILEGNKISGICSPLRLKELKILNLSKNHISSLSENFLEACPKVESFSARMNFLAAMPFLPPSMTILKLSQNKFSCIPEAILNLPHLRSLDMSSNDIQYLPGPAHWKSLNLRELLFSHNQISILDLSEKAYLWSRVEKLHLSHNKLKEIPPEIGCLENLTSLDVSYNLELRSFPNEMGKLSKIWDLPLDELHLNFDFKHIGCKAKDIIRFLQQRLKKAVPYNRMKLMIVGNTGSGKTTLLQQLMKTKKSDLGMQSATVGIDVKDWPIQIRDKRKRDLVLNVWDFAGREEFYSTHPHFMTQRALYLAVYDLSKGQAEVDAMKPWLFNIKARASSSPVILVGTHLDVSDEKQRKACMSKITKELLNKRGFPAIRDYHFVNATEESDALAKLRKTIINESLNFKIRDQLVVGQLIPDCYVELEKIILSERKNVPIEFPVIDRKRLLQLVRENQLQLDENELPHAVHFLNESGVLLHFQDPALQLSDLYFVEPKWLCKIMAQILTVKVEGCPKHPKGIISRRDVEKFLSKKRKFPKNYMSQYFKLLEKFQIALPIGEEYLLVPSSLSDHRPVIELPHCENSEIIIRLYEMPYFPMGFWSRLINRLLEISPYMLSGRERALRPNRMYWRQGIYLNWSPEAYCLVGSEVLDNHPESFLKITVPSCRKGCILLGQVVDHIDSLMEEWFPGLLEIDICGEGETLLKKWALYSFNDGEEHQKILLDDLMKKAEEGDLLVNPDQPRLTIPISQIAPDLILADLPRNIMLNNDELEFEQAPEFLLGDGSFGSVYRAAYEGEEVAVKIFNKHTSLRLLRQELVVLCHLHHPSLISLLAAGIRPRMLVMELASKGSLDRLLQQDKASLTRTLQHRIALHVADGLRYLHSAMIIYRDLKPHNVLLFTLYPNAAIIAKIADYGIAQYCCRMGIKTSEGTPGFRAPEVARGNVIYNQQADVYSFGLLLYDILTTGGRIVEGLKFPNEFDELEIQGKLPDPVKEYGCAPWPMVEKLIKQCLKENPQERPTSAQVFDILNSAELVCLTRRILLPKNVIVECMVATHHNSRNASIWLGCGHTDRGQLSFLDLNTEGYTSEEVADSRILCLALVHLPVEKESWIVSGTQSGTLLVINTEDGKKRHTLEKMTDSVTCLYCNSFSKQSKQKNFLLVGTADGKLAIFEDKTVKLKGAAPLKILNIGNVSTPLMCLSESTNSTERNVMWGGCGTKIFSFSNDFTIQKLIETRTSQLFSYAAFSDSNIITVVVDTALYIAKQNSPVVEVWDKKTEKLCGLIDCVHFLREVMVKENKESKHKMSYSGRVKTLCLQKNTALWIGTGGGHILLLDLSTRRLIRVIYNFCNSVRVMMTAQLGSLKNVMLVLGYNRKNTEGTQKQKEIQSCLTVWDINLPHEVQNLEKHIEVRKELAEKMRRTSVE

Row | % LRRKtide phosphorylation relative to solvent [1] [%] | Phosphorylation level relative to solvent (%) (cellular pS935 assay) (LRRK2 phospho-Ser935) | Compound | dephosphorylation of LRRK2 (Ser935) (LRRK2 phospho-Ser935) | activity on LRRK2 kinase activity in vitro (in words) ([1]; no activity at 10 μM) | Cellular pS935 (% @ 5 μM) (LRRK2 phospho-Ser935; pS935 level as % of control, 5 μM for 2 h, SH-SY5Y cells with stable expression of LRRK2) [%]
1 | 45.29 | 155.11 | Cl.Cl.O=S(=O)(NCCNC/C=C/c1ccc(Br)cc1)c1cccc2cnccc12 [H-89, Dihydrochloride] | – | – | –
2 | 21.13 | 108.79 | O=C1C(Cl)=C(N2C(=O)CCC2=O)C(=O)c2ccccc21 [MEK inhibitor II] | – | – | –
3 | 32.15 | 63.04 | c1ccc2c(-c3ccncc3)c[nH]c2c1 [Rho kinase inhibitor III, rockout, rockout] | – | – | –
4 | 13.54 | 122.47 | Nc1cccc(-c2cc3c(Oc4cccc(O)c4)ncnc3[nH]2)c1 [GSK-3b inhibitor XII, TWS119, TWS119] | – | – | –
5 | 5.76 | 57.20 | PDK1/Akt/Flt dual pathway inhibitor | – | – | –
6 | 90.73 | 74.17 | O=c1cc(N2CCOCC2)oc2c(-c3ccccc3)cccc12 [LY 294002] | – | – | –
7 | 11.18 | 85.53 | Indirubin-3′-monoxime | – | – | –
8 | 10.36 | 69.28 | C[C@@H](N)[C@H]1CC[C@H](C(=O)Nc2ccncc2)CC1 [ROCK inhibitor, Y-27632, Y-27632] | – | – | –
9 | 128.15 | 115.21 | COc1ccc(CNC(=O)Nc2ncc([N+](=O)[O-])s2)cc1 [GSK-3b inhibitor VIII] | – | – | –
10 | 123.21 | 60.73 | O=C(CCCc1ccc(-c2ccccc2F)cc1)Nc1ccc(O)cc1 [MK2a inhibitor] | – | – | –
11 | 73.68 | 70.97 | Nc1nccc(-c2c(-c3ccc(F)cc3)ncn2C2CCNCC2)n1 [SB 220025] | – | – | –
12 | 90.96 | 63.71 | CC(C)N(CCC(=O)c1ccc2ccccc2c1)Cc1ccccc1 [JAK3 inhibitor IV] | – | – | –
13 | 101.20 | 65.24 | CO[C@H]1C[C@@H]2CC[C@@H](C)[C@@](O)(O2)C(=O)C(=O)N2CCCC[C@H]2C(=O)O[C@H]([C@H](C)C[C@@H]2CC[C@@H](O)[C@H](OC)C2)CC(=O)[C@H](C)/C=C(\C)[C@@H](O)[C@@H](OC)C(=O)[C@H](C)C[C@H](C)/C=C/C=C/C=C/1C [Rapamycin] | – | – | –
14 | 104.37 | 57.95 | Cc1cccc(-c2[nH]c(C(C)(C)C)nc2-c2ccc3c(c2)OCO3)n1 [TGF-b RI inhibitor III] | – | – | –
15 | 3.34 | 73.51 | Cc1cc(Nc2nc(-c3ccccc3)nc3ccccc23)n[nH]1 [GSK-3 inhibitor XIII] | – | – | –
16 | 15.36 | 61.54 | Nc1ncnc2c1c(-c1ccc(Oc3ccccc3)cc1)cn2C1CCCC1 [Lck inhibitor] | – | – | –

Further lines, the compound ahead of its results:

Row | Compound | % LRRKtide phosphorylation relative to solvent [1] [%] | Phosphorylation level relative to solvent (%) (cellular pS935 assay) (LRRK2 phospho-Ser935) | dephosphorylation of LRRK2 (Ser935) (LRRK2 phospho-Ser935) | activity on LRRK2 kinase activity in vitro (in words) ([1]; no activity at 10 μM) | Cellular pS935 (% @ 5 μM) (LRRK2 phospho-Ser935; pS935 level as % of control, 5 μM for 2 h, SH-SY5Y cells with stable expression of LRRK2) [%]
17 | CCN1/C(=C/C(C)=O)Sc2ccc(OC)cc21 [Cdc2-like kinase inhibitor, TG003, TG003] | 37.41 | 81.30 | – | – | –
18 | CCN(CC)CCCCN1c2ccccc2Oc2ccc(Cl)cc21 [Akt inhibitor X] | 61.91 | 69.13 | – | – | –
19 | CC(C)c1nn(-c2c(Cl)cccc2Cl)c2nc(Cc3ccc(OCCO)cc3)[nH]c(=O)c12 [Cdk/Crk inhibitor] | 54.91 | 97.11 | – | – | –
20 | Nc1[nH]nc2nc3ccccc3nc12 [Cdk1/5 inhibitor] | 25.04 | 123.99 | – | – | –
21 | O=[N+]([O-])/C=C/c1ccc2c(c1)OCO2 [Syk inhibitor III] | 82.95 | 68.01 | – | – | –
22 | NC(=O)c1cccc(-c2cc(Nc3ccc(OC(F)(F)F)cc3)ncn2)c1 [Bcr-abl inhibitor] | 82.04 | 78.83 | – | – | –
23 | CCOc1nc(NC(=O)Cc2cc(OC)ccc2OC)cc(N)c1C#N [JNK inhibitor VIII] | 105.45 | 93.08 | – | – | –
24 | O=C1NC(=O)c2c1c1c3ccccc3n3c1c1c2c2ccccc2n1C1CCC3O1 [SB 218078] | 1.94 | 89.51 | – | – | –
25 | O=C1c2ccccc2-[n+]2ccc3c([nH]c4ccccc43)c21 [Fascaplysin, synthetic, Fascaplysin] | 17.51 | 45.44 | – | – | –
26 | O=c1[nH]c2ccccc2n1C1CCN(Cc2ccc(-c3nc4cc5nc[nH]c5cc4nc3-c3ccccc3)cc2)CC1 [Akti-1/2] | 99.69 | 77.80 | – | – | –
27 | c1ccc(-c2cnc(Nc3ccc(OCCN4CCCC4)cc3)s2)cc1 [Flt-3 inhibitor III] | 12.56 | 54.21 | – | – | –
28 | N#C/C(=C/c1ccc(O)c(O)c1)C(=O)NCc1ccccc1 [AG490] | 34.24 | 50.68 | 49.32% | – | –
29 | N#CCCc1ccc2c(c1)-c1[nH]c3ccc([N+](=O)[O-])cc3c1CC(=O)N2 [Alsterpaullone, 2-Cyanoethyl] | 10.82 | 96.84 | – | – | –
30 | Oc1ccc(-c2nc(-c3ccncc3)c(-c3ccc(F)cc3)[nH]2)cc1 [SB 202190] | 45.07 | 88.12 | – | – | –
31 | NC(=O)Nc1sc(-c2ccc(F)cc2)cc1C(N)=O [IKK-2 inhibitor IV] | 5.13 | 108.38 | – | – | –
32 | CC[n+]1c(/C=C/N(C)c2ccccc2)n(-c2ccccc2)c2ccc(-c3nc4ccccc4s3)cc21.[I-] [Akt inhibitor IV] | 18.59 | 76.44 | – | – | –
33 | Nc1nc(Nc2ccc(S(N)(=O)=O)cc2)nn1C(=O)c1c(F)cccc1F [Aurora kinase/Cdk inhibitor] | 1.21 | 45.67 | – | – | –
34 | N#CC(C#N)=C(N)/C(C#N)=C/c1ccc(O)cc1 [AG 112] | 77.45 | 60.39 | – | – | –
35 | N/C(=N\[N+](=O)[O-])N/N=C\c1ccc(-c2cccc([N+](=O)[O-])c2)o1 [ERK inhibitor III] | 55.32 | 90.93 | – | – | –
36 | O=C(O)c1ccc2c3c1cccc3c(=O)n1c3ccccc3nc21 [STO-609] | 15.01 | 121.51 | – | – | –
37 | Cc1ccc(S(=O)(=O)/C=C/C#N)cc1 [BAY 11-7082] | 132.94 | 47.14 | ~ 50% | inactive | –
38 | CCCC(=O)Oc1ccc2[nH]c(C(=O)c3cc4ccccc4[nH]3)cc2c1 [PDGF receptor tyrosine kinase inhibitor II] | 93.77 | 65.41 | – | – | –
39 | O=c1[nH][nH]c2nnc(-c3c(-c4ccccc4)nn4ccccc34)cc12 [ERK inhibitor II, negative control] | 97.07 | 77.12 | – | – | –
40 | Cc1cc2ncc(-c3ccccc3)nc2cc1C [AG 1295] | 89.08 | 49.08 | – | – | –
41 | CN[C@@H]1C[C@H]2O[C@@](C)([C@@H]1OC)n1c3ccccc3c3c4c(c5c6ccccc6n2c5c31)C(=O)NC4 [Staurosporine, Streptomyces sp., Staurosporine] | – | – | – | – | 8.89
